The text below walks through data of patent US8084499B2, “Modified clay mineral” (Ajinomoto Co., Inc., priority 2006, dated 2011).

SMILES strings stand for the structures.

The nature of this data set: Emulsion stability (B-type viscometer, 60 rpm viscosity / 6 rpm viscosity). As to conditions: emulsion compositions similar to Example 1, compound of formula (1) with given R1/R2 instead of cocoylarginine ethyl ester.

Experimental: A B-type (Brookfield type) viscometer (manufactured by TOKYO KEIKI, DIGITAL VISCOMETER DVL-B) was used. About 100 ml of each emulsion composition was placed in a glass vial container, a rotor was appropriately selected, and the value obtained at a room temperature condition of 25° C., number of rotation of 6 or 60 rpm after 30 seconds was taken as the measurement value at each number of rotation. The measurement value at 60 rpm was divided by the measurement value at 6 rpm, and 0.10 to 0.19 was rated as ⊙, 0.20 to 0.29 was rated as ◯, 0.30 to 0.39 was rated as Δ, and not less than 0.40 was rated as x.

As to `CCCCCCCCCCCC(=O)N[C@@H](CCCNC(=N)N)C(=O)OC(C)C` [lauric acid residue / isopropyl group, N-lauroylarginine isopropyl ester cation], the “emulsion stability, rating” value was “⊙ (0.10 to 0.19 was rated as ⊙)”.

As for `CCCCCCCCCCCCCCCCCC(=O)N[C@@H](CCCNC(=N)N)C(=O)OCC` [stearic acid residue / ethyl group, N-stearoylarginine ethyl ester cation], the “emulsion stability, rating” value is listed as “⊙ (0.10 to 0.19 was rated as ⊙)”.

On to `CCCCCCCCCCCC(=O)NC(CCCNC(=N)N)C(=O)OCC(C)C` (stereo not shown) [lauric acid residue / isobutyl group, N-lauroylarginine isobutyl ester cation], for which the “emulsion stability, rating” value is “⊙ (0.10 to 0.19 was rated as ⊙)”.

Regarding `CCCCCCCC/C=C\CCCCCCCC(=O)NC(CCCNC(=N)N)C(=O)OCC` (stereo not shown) [oleic acid residue / ethyl group, N-oleylarginine ethyl ester cation], the “emulsion stability, rating” value is “⊙ (0.10 to 0.19 was rated as ⊙)”.

Regarding `CCCCCCCCCCCC(=O)NC(CCCNC(=N)N)C(=O)OC(C)CC` (stereo not shown) [lauric acid residue / s-butyl group, N-lauroylarginine s-butyl ester cation], the “emulsion stability, rating” value is “⊙ (0.10 to 0.19 was rated as ⊙)”.

As for `CCCCCCCCCCCCCCCC(=O)NC(CCCNC(=N)N)C(=O)OCC` (stereo not shown) [palmitic acid residue / ethyl group, N-palmitoylarginine ethyl ester cation], the “emulsion stability, rating” value is on record as “⊙ (0.10 to 0.19 was rated as ⊙)”.

Take `CCCCCCCCCCCC(=O)NC(CCCNC(=N)N)C(=O)OCC` (stereo not shown) [lauric acid residue / ethyl group, N-lauroylarginine ethyl ester cation]: the “emulsion stability, rating” value is “⊙ (0.10 to 0.19 was rated as ⊙)”.
